Measured values reported in patent US3963735A, “Acylated 2-aminothiazole derivatives” (Egyt Gyogyszervegyeszeti Gyar, priority 1973, dated 1976).
Counter-ions that a name gives are not always drawn. Like-named read-outs stand apart in the source and are kept apart here.

Key:
in vivo = details: rat
Experimental: (§2) The effects of the new compounds exerted on the gastric acid secretion and Shay ulcer was examined according to the method of H. Shay et al. (Gastroenterology 5, 43/1945/), while their inhibition effect exerted on immobilisation and insuline ulcer was tested according to the method of Borsi et al. (Acta Pharm. Hung. 38, 151 /1968/). […] All experiments were carried out on rats. As reference substance, methantheline (diethyl-/2-hydroxyethyl/-methylammonium bromide xanthene-9-carboxylate) was used.

ileum = details: rat
Experimental: as §2

acute toxicity = details: in vivo, rat
Experimental: (§1) All experiments were carried out on rats.

gastric acid secretion = assay: inhibition of gastric juice secretion, method of H. Shay et al.; type: in vivo; details: po; rat
Experimental: as §1

immobilisation ulcer = immobilisation ulcer inhibition, method of Borsi et al.; type: in vivo; details: po, rat, p.o., read-out: Ulcer-inhibiting effect ED50, immob.
Experimental: as §1

insuline ulcer = assay: insulin ulcer inhibition, method of Borsi et al.; type: in vivo; details: po, rat, p.o., read-out: Ulcer-inhibiting effect ED50, insulin
Experimental: as §1

Shay ulcer = assay: Shay ulcer-inhibiting effect, method of H. Shay et al.; type: in vivo; details: po, rat
Experimental: as §1

[1] = ip, i.p., read-out: Acute toxicity LD50, i.p.
[2] = po, p.o., read-out: Acute toxicity LD50, p.o.

Compound	ED50 (in vivo)	Anticholinergic effect, ED50, ileum (ileum)	LD50 (acute toxicity; [1])	LD50 (acute toxicity; [2])	ED50 (gastric acid secretion)	ED50 (immobilisation ulcer)	ED50 (insuline ulcer)	ED50 (Shay ulcer)
O=C(CNC1CC1)Nc1nc(-c2ccncc2)cs1 [Example 33, 2-cyclopropylamino-acetamido-4-(4'-pyridyl)-thiazole dihydrochloride]	> 100 mg/kg	> 1 gamma	600 mg/kg	900 mg/kg	20 mg/kg	–	–	–
CCCCCCNCC(=O)Nc1nc(-c2cccnc2)cs1 [Example 27, 2-(n-Hexylamino-acetamido)-4-(3'-pyridyl)-thiazole dihydrochloride]	> 100 mg/kg	> 1 gamma	300 mg/kg	450 mg/kg	30 mg/kg	25 mg/kg	20 mg/kg	50 mg/kg
Cc1sc(NC(=O)CNC2CC2)nc1-c1cccnc1 [Example 31, 2-cyclopropylamino-acetamido-4-(3'-pyridyl)-5-methyl-thiazole dihydrochloride]	> 100 mg/kg	> 1 gamma	500 mg/kg	1000 mg/kg	19 mg/kg	30 mg/kg	20 mg/kg	50 mg/kg
O=C(CNCc1ccccc1)Nc1nc(-c2cccnc2)cs1 [Example 8, 2-(Benzylamino-acetamido)-4-(3'-pyridyl)-thiazole]	> 100 mg/kg	> 1 gamma	> 1000 mg/kg	1000 mg/kg	20 mg/kg	–	–	> 40 mg/kg
O=C(CN1CCCCC1)Nc1nc(-c2cccnc2)cs1 [Example 17, 2-(Pentamethyleneimino-acetamido)-4-(3'-pyridyl)-thiazole]	> 100 mg/kg	> 1 gamma	650 mg/kg	1300 mg/kg	> 40 mg/kg	> 40 mg/kg	> 40 mg/kg	> 40 mg/kg
CCNCC(=O)Nc1nc(-c2cccnc2)cs1 [Example 4, 2-(Ethylamino-acetamido)-4-(3'-pyridyl)-thiazole]	> 100 mg/kg	> 1 gamma	240 mg/kg	550 mg/kg	16 mg/kg	40 mg/kg	12 mg/kg	> 40 mg/kg
O=C(CN1CCOCC1)Nc1nc(-c2cccnc2)cs1 [Example 18, 2-(4'-Morpholino-acetamido)-4-(3"-pyridyl)-thiazole]	> 100 mg/kg	> 1 gamma	> 1000 mg/kg	1300 mg/kg	> 40 mg/kg	–	–	> 40 mg/kg
Cc1sc(NC(=O)CNCCO)nc1-c1cccnc1 [Example 32, 2-(2'-hydroxyethylamino-acetamido)-4-(3"-pyridyl)-5-methyl-thiazole]	> 100 mg/kg	> 1 gamma	400 mg/kg	> 1500 mg/kg	35 mg/kg	> 40 mg/kg	> 40 mg/kg	> 40 mg/kg
CC[N+](C)(CC)CCOC(=O)C1c2ccccc2Oc2ccccc21 [Methantheline, diethyl-/2-hydroxyethyl/-methylammonium bromide xanthene-9-carboxylate, reference compound]	17 mg/kg	3×10^-^5 gamma	76 mg/kg	320 mg/kg	20 mg/kg	20.7 mg/kg	11.5 mg/kg	15.2 mg/kg
O=C(CN1CCCCCCC1)Nc1nc(-c2cccnc2)cs1 [Example 19, 2-(Heptamethyleneimino-acetamido)-4-(3'-pyridyl)-thiazole]	> 100 mg/kg	> 1 gamma	> 1000 mg/kg	> 2000 mg/kg	> 40 mg/kg	–	–	> 40 mg/kg
CCCCCCCCNCC(=O)Nc1nc(-c2cccnc2)cs1 [Example 28, 2-(n-Octylamino-acetamido)-4-(3'-pyridyl)-thiazole dihydrochloride]	> 100 mg/kg	> 1 gamma	200 mg/kg	800 mg/kg	40 mg/kg	–	–	> 40 mg/kg
O=C(CNc1ccccc1)Nc1nc(-c2cccnc2)cs1 [Example 16, 2-(Phenylamino-acetamido)-4-(3'-pyridyl)-thiazole]	> 100 mg/kg	> 1 gamma	> 1000 mg/kg	> 2000 mg/kg	> 40 mg/kg	> 40 mg/kg	> 40 mg/kg	> 40 mg/kg
CCN(CC)CC(=O)Nc1nc(-c2cccnc2)cs1 [Example 5, 2-(Diethylamino-acetamido)-4-(3'-pyridyl)-thiazole]	> 100 mg/kg	> 1 gamma	460 mg/kg	1400 mg/kg	40 mg/kg	40 mg/kg	> 40 mg/kg	> 40 mg/kg
O=C(CNC1CC1)Nc1nc(-c2cccnc2)cs1 [Example 2, 2-cyclopropylamino-acetamido-4-(3'-pyridyl)-thiazole]	> 100 mg/kg	> 1 gamma	310 mg/kg	420 mg/kg	8 mg/kg	27 mg/kg	6 mg/kg	40 mg/kg
CC(C)CNCC(=O)Nc1nc(-c2cccnc2)cs1 [Example 24, 2-(Isobutylamino-acetamido)-4-(3'-pyridyl)-thiazole dihydrochloride]	> 100 mg/kg	> 1 gamma	200 mg/kg	350 mg/kg	23 mg/kg	> 40 mg/kg	20 mg/kg	> 40 mg/kg
